Experimental data from PubChem BioAssay (NCI).
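96-well plates; 48 h exposure; 5 concentrations. Endpoints by linear interpolation between flanking doses. Not reached: highest tested concentration assigned. GI50 = concentration required for 50% inhibition of growth. TGI: concentration producing complete growth inhibition.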

Legend:
Experiment in all cases: NCI-60 cell line screen, 48 h; in the data active = GI50 below about 0.43 µM; inactive = the rest
SNB-75 CNS = tested on: SNB-75 CNS
MCF7 breast = tested on: MCF7 breast
OVCAR-3 ovarian = tested on: OVCAR-3 ovarian
HT29 colon = tested on: HT29 colon
IGROV1 ovarian = tested on: IGROV1 ovarian
UACC-257 melanoma = tested on: UACC-257 melanoma
SK-OV-3 ovarian = tested on: SK-OV-3 ovarian
LOX IMVI melanoma = tested on: LOX IMVI melanoma
OVCAR-4 ovarian = tested on: OVCAR-4 ovarian
SF-295 CNS = tested on: SF-295 CNS
UO-31 renal = tested on: UO-31 renal
SW-620 colon = tested on: SW-620 colon
OVCAR-8 ovarian = tested on: OVCAR-8 ovarian
NCI-H226 lung = tested on: NCI-H226 lung
EKVX NSCLC = tested on: EKVX NSCLC
BT-549 breast = tested on: BT-549 breast
T-47D breast = tested on: T-47D breast
MDA-MB-231 breast = tested on: MDA-MB-231 breast
HCC-2998 colon = tested on: HCC-2998 colon
SK-MEL-2 melanoma = tested on: SK-MEL-2 melanoma
U251 CNS = tested on: U251 CNS
HS 578T breast = tested on: HS 578T breast
NCI-H23 lung = tested on: NCI-H23 lung
UACC-62 melanoma = tested on: UACC-62 melanoma
SF-539 CNS = tested on: SF-539 CNS
786-0 renal = tested on: 786-0 renal
MOLT-4 leukemia = tested on: MOLT-4 leukemia
MALME-3M melanoma = tested on: MALME-3M melanoma
CCRF-CEM leukemia = tested on: CCRF-CEM leukemia
ACHN renal = tested on: ACHN renal
HCT-116 colon = tested on: HCT-116 colon
A498 renal = tested on: A498 renal
DU-145 prostate = tested on: DU-145 prostate
NCI-H460 lung = tested on: NCI-H460 lung
HCT-15 colon = tested on: HCT-15 colon
SN12C renal = tested on: SN12C renal
NCI-H522 lung = tested on: NCI-H522 lung
TK-10 renal = tested on: TK-10 renal
K-562 leukemia = tested on: K-562 leukemia
SK-MEL-28 melanoma = tested on: SK-MEL-28 melanoma
PC-3 prostate = tested on: PC-3 prostate
HL-60(TB) leukemia = tested on: HL-60(TB) leukemia
RPMI-8226 leukemia = tested on: RPMI-8226 leukemia
RXF 393 renal = tested on: RXF 393 renal
SF-268 CNS = tested on: SF-268 CNS
OVCAR-5 ovarian = tested on: OVCAR-5 ovarian
M14 melanoma = tested on: M14 melanoma
NCI/ADR-RES ovarian = tested on: NCI/ADR-RES ovarian
SNB-19 CNS = tested on: SNB-19 CNS
KM12 colon = tested on: KM12 colon
HOP-92 NSCLC = tested on: HOP-92 NSCLC
COLO 205 colon = tested on: COLO 205 colon
HOP-62 NSCLC = tested on: HOP-62 NSCLC
CAKI-1 renal = tested on: CAKI-1 renal
SK-MEL-5 melanoma = tested on: SK-MEL-5 melanoma
A549 NSCLC = tested on: A549 NSCLC
MDA-MB-435 = tested on: MDA-MB-435
SR leukemia = tested on: SR leukemia

CCn1c2ccccc2c2cc(/C=C(/C#N)C(N)=S)ccc21
> 60.6 µM: TGI (UO-31 renal)
23.5 µM: TGI (U251 CNS)
17.7 µM: TGI (HOP-62 NSCLC)
> 58.4 µM: TGI (EKVX NSCLC)
51.6 µM: TGI (HCT-15 colon)
46.1 µM: TGI (SNB-75 CNS)
40.6 µM: TGI (SF-268 CNS)
0.0236 µM: TGI (NCI-H226 lung)
1.51 µM: TGI (UACC-62 melanoma)
20.2 µM: TGI (SK-MEL-5 melanoma)
> 87.4 µM: TGI (A549 NSCLC)
> 21.4 µM: TGI (UACC-257 melanoma)
29.9 µM: TGI (SN12C renal)
27.4 µM: TGI (SF-539 CNS)
23.2 µM: TGI (IGROV1 ovarian)
> 68.4 µM: TGI (NCI-H522 lung)
58.6 µM: TGI (MOLT-4 leukemia)
> 62.1 µM: TGI (SK-OV-3 ovarian)
39 µM: TGI (RXF 393 renal)
> 75.6 µM: TGI (SNB-19 CNS)
39.4 µM: TGI (786-0 renal)
26.1 µM: TGI (LOX IMVI melanoma)
46.9 µM: TGI (HOP-92 NSCLC)
9.92 µM: TGI (OVCAR-4 ovarian)
18.2 µM: TGI (OVCAR-3 ovarian)
0.57 µM: TGI (OVCAR-5 ovarian)
29.6 µM: TGI (MDA-MB-435)
9.29 µM: TGI (HS 578T breast)
1.82 µM: TGI (TK-10 renal)
25.1 µM: TGI (SW-620 colon)
0.115 µM: TGI (A498 renal)
24.2 µM: TGI (SF-295 CNS)
56.4 µM: TGI (OVCAR-8 ovarian)
20.9 µM: TGI (HCT-116 colon)
38.8 µM: TGI (M14 melanoma)
64 µM: TGI (ACHN renal)
> 100 µM: TGI (SK-MEL-2 melanoma) | TGI (CCRF-CEM leukemia) | TGI (K-562 leukemia) | TGI (HL-60(TB) leukemia) | TGI (RPMI-8226 leukemia)
38.5 µM: TGI (NCI/ADR-RES ovarian) | TGI (KM12 colon)
63.6 µM: TGI (DU-145 prostate)
47.2 µM: TGI (SK-MEL-28 melanoma)
12.2 µM: TGI (NCI-H460 lung)
17.8 µM: TGI (MCF7 breast)
> 59.4 µM: TGI (PC-3 prostate)
30.8 µM: TGI (MDA-MB-231 breast)
48.5 µM: TGI (MALME-3M melanoma)
36.6 µM: TGI (BT-549 breast)
> 35.4 µM: TGI (CAKI-1 renal)
> 42.7 µM: TGI (HT29 colon)
35.4 µM: TGI (NCI-H23 lung)
9 µM: TGI (HCC-2998 colon)
> 45.7 µM: TGI (COLO 205 colon)
active: GI50 (MCF7 breast) 0.271 µM | GI50 (UACC-62 melanoma) 0.219 µM | GI50 (A498 renal) 0.026 µM | GI50 (TK-10 renal) 0.216 µM | GI50 (OVCAR-5 ovarian) 0.0581 µM
inactive: GI50 (SNB-75 CNS) 18.8 µM | GI50 (OVCAR-3 ovarian) 1.73 µM | GI50 (HT29 colon) 10.9 µM | GI50 (IGROV1 ovarian) 0.619 µM | GI50 (UACC-257 melanoma) 3.11 µM | GI50 (SK-OV-3 ovarian) 36.7 µM | GI50 (LOX IMVI melanoma) 13 µM | GI50 (OVCAR-4 ovarian) 1.43 µM | GI50 (SF-295 CNS) 4.64 µM | GI50 (UO-31 renal) 20.4 µM | GI50 (SW-620 colon) 9.06 µM | GI50 (OVCAR-8 ovarian) 20.5 µM | GI50 (EKVX NSCLC) 17.7 µM | GI50 (BT-549 breast) 18.6 µM | GI50 (T-47D breast) 4.84 µM | GI50 (MDA-MB-231 breast) 12.1 µM | GI50 (HCC-2998 colon) 2.88 µM | GI50 (SK-MEL-2 melanoma) 31.3 µM | GI50 (U251 CNS) 4.85 µM | GI50 (HS 578T breast) 2.21 µM | GI50 (NCI-H23 lung) 14.8 µM | GI50 (SF-539 CNS) 14.2 µM | GI50 (786-0 renal) 16.1 µM | GI50 (MOLT-4 leukemia) 12.5 µM | GI50 (MALME-3M melanoma) 6.19 µM | GI50 (CCRF-CEM leukemia) 23.4 µM | GI50 (ACHN renal) 19.6 µM | GI50 (HCT-116 colon) 5.79 µM | GI50 (DU-145 prostate) 16.1 µM | GI50 (NCI-H460 lung) 0.443 µM | GI50 (HCT-15 colon) 18.7 µM | GI50 (SN12C renal) 11.8 µM | GI50 (NCI-H522 lung) 26.9 µM | GI50 (K-562 leukemia) 12.8 µM | GI50 (SK-MEL-28 melanoma) 17.7 µM | GI50 (PC-3 prostate) 18.3 µM | GI50 (HL-60(TB) leukemia) 74.4 µM | GI50 (RPMI-8226 leukemia) 35.4 µM | GI50 (RXF 393 renal) 16.5 µM | GI50 (SF-268 CNS) 16.3 µM | GI50 (M14 melanoma) 18.2 µM | GI50 (NCI/ADR-RES ovarian) 18 µM | GI50 (SNB-19 CNS) 35.2 µM | GI50 (KM12 colon) 15.2 µM | GI50 (HOP-92 NSCLC) 14.6 µM | GI50 (COLO 205 colon) 13.2 µM | GI50 (HOP-62 NSCLC) 1.21 µM | GI50 (CAKI-1 renal) 1.12 µM | GI50 (SK-MEL-5 melanoma) 7.26 µM | GI50 (A549 NSCLC) 17.5 µM | GI50 (MDA-MB-435) 6.06 µM

COc1ccc(S(=O)Cc2cc(OC)c(OC)c(OC)c2)cc1 (configuration not stated)
35.7 µM: TGI (MDA-MB-435)
> 100 µM: TGI (SNB-75 CNS) | TGI (MCF7 breast) | TGI (OVCAR-3 ovarian) | TGI (HT29 colon) | TGI (IGROV1 ovarian) | TGI (UACC-257 melanoma) | TGI (SK-OV-3 ovarian) | TGI (LOX IMVI melanoma) | TGI (OVCAR-4 ovarian) | TGI (SF-295 CNS) | TGI (UO-31 renal) | TGI (SW-620 colon) | TGI (OVCAR-8 ovarian) | TGI (SR leukemia) | TGI (NCI-H226 lung) | TGI (EKVX NSCLC) | TGI (BT-549 breast) | TGI (T-47D breast) | TGI (MDA-MB-231 breast) | TGI (HCC-2998 colon) | TGI (SK-MEL-2 melanoma) | TGI (U251 CNS) | TGI (HS 578T breast) | TGI (NCI-H23 lung) | TGI (UACC-62 melanoma) | TGI (SF-539 CNS) | TGI (786-0 renal) | TGI (MOLT-4 leukemia) | TGI (MALME-3M melanoma) | TGI (CCRF-CEM leukemia) | TGI (ACHN renal) | TGI (HCT-116 colon) | TGI (DU-145 prostate) | TGI (NCI-H460 lung) | TGI (HCT-15 colon) | TGI (SN12C renal) | TGI (NCI-H522 lung) | TGI (TK-10 renal) | TGI (K-562 leukemia) | TGI (SK-MEL-28 melanoma) | TGI (PC-3 prostate) | TGI (RPMI-8226 leukemia) | TGI (RXF 393 renal) | TGI (SF-268 CNS) | TGI (OVCAR-5 ovarian) | TGI (M14 melanoma) | TGI (NCI/ADR-RES ovarian) | TGI (SNB-19 CNS) | TGI (KM12 colon) | TGI (COLO 205 colon) | TGI (HOP-62 NSCLC) | TGI (CAKI-1 renal) | TGI (SK-MEL-5 melanoma) | TGI (A549 NSCLC)
